Source: patent publication US4436751A, “Nitrobenzyl monates antibacterial compounds” (Beecham Group Limited, priority 1980, dated 1984)
Converted amounts (≈) assume the structure as drawn. Where two headings read alike, the source gives them in different places.

How the values were obtained:
Type in all cases: cell-based
[1] = tested on: M. suipneumoniae NCTC 10110; test: Anti-mycoplasmal MIC in vitro, Friis broth agarose (Table 1); conditions: Mesomycoplasma hyopneumoniae, NCTC10110, 144 h
M. suipneumoniae HR(2) = test: as above; conditions: Mesomycoplasma hyopneumoniae, 144 h
M. hyorhinis ATCC 25021 = test: as above; conditions: Mesomycoplasma hyorhinis, ATCC25021, 144 h
M. suipneumoniae OCD 1 = test: as above; conditions: Mesomycoplasma hyopneumoniae, OCD1, 144 h
M. suipneumoniae TAM 6N = test: as above; conditions: Mesomycoplasma hyopneumoniae, TAM6N, 144 h
M. bovis RCTC 10131 = test: microbe, parasite or virus in culture; conditions: RCTC10131, 144 h
M. dispar RCTC 10125 = test: Anti-mycoplasmal MIC in vitro, Friis broth agarose (Table 1); conditions: 144 h
M. suipneumoniae LABER = test: as above; conditions: Mesomycoplasma hyopneumoniae, 144 h
[2] = tested on: M. suipneumoniae J2206/183b; test: as above; conditions: Mesomycoplasma hyopneumoniae, J2206/183B, 144 h
M. suipneumoniae Str. 11 = test: as above; conditions: Mesomycoplasma hyopneumoniae, STR.11, 144 h
[3] = tested on: M. suipneumoniae ATCC 25095; test: as above; conditions: Mesomycoplasma hyopneumoniae, ATCC25095, 144 h
[4] = tested on: Pasteurella multocida 1633; test: Human bacteria MIC, nutrient agar with chocolated horse blood (Table 3); conditions: Pasteurella multocida 1633; nutrient agar 5% chocolated horse blood, 18 hours 37° C.; read-out: MIC
Experimental: (§1) The values were determined by serial dilutions in nutrient agar with 5% chocolated horse blood after incubations for 18 hours at 37° C.

[5] = tested on: Haemophilus influenzae Q1; test: as above; conditions: Haemophilus influenzae Q1; nutrient agar 5% chocolated horse blood, 18 hours 37° C.; read-out: MIC
Experimental: as §1

K. aerogenes A = test: as above; conditions: Klebsiella aerogenes
Experimental: as §1

Staph. aureus W2827 = test: as above; conditions: Staphylococcus aureus, W2827, 18 h
Experimental: as §1

[6] = tested on: Ps. aeruginosa NCTC 10662; test: as above; conditions: Pseudomonas aeruginosa
Experimental: as §1

[7] = tested on: Strep. pyogenes R80/421-A; test: as above; conditions: Streptococcus pyogenes; Strep. pyogenes R80/421-A; nutrient agar 5% chocolated horse blood, 18 hours 37° C.; read-out: MIC
Experimental: as §1

[8] = tested on: Corynebacterium xerosis 9755; test: as above
Experimental: as §1

Sarcina lutea 8340 = test: as above
Experimental: as §1

P. mirabilis 889 = test: as above
Experimental: as §1

Staph. aureus Russell = test: as above; conditions: Staphylococcus aureus
Experimental: as §1

E. Coli NCTC 10418 = test: as above; conditions: Escherichia coli
Experimental: as §1

Staph. aureus Oxford = test: as above; conditions: Staphylococcus aureus
Experimental: as §1

Strep. faecalis 1 = test: as above; conditions: Enterococcus faecalis; Strep. faecalis 1; nutrient agar 5% chocolated horse blood, 18 hours 37° C.; read-out: MIC
Experimental: as §1

Bacillus subtilis 6633 = test: as above
Experimental: as §1

[9] = tested on: Strep. suis (group D) SPS11; test: Veterinary bacteria MIC, Diagnostic Sensitivity Test Agar (Table 2); conditions: Streptococcus suis
Experimental: The values were determined using a two fold serial dilutions in Diagnostic Sensitivity Test Agar with an inoculum of 10^4 organisms and incubation for 18 hours at 37° C.

M. suipneumoniae JF 435 = test: Anti-mycoplasmal MIC in vitro, Friis broth agarose (Table 1); conditions: Mesomycoplasma hyopneumoniae, JF435, 144 h
[10] = tested on: M. suipneumoniae PW/C/210; test: as above; conditions: Mesomycoplasma hyopneumoniae, 144 h

| SMILES | MIC [1] [µg/mL] | MIC (M. suipneumoniae HR(2)) [µg/mL] | MIC (M. hyorhinis ATCC 25021) [µg/mL] | MIC (M. suipneumoniae OCD 1) [µg/mL] | MIC (M. suipneumoniae TAM 6N) [µg/mL] | MIC (M. bovis RCTC 10131) [µg/mL] | MIC (M. dispar RCTC 10125) [µg/mL] | MIC (M. suipneumoniae LABER) [µg/mL] | MIC [2] [µg/mL] | MIC (M. suipneumoniae Str. 11) [µg/mL] | MIC [3] [µg/mL] | MIC [4] [µg/mL] | MIC [5] [µg/mL] | MIC (Staph. aureus W2827) [µg/mL] | MIC [7] [µg/mL] | MIC (Strep. faecalis 1) [µg/mL] | MIC (M. suipneumoniae JF 435) [µg/mL] | MIC [10] [µg/mL] | also measured |
| --- | --- | --- | --- | --- | --- | --- | --- | --- | --- | --- | --- | --- | --- | --- | --- | --- | --- | --- | --- |
| C/C(=C\C(=O)OCc1cccc([N+](=O)[O-])c1)CC1OCC(C/C=C/C(C)C(C)O)C(O)C1O (centres unmarked) [Example 5, m-nitrobenzyl monate C] | 0.25 (≈ 0.539 µM) | 0.25 (≈ 0.539 µM) | 0.25 (≈ 0.539 µM) | 0.25 (≈ 0.539 µM) | 0.25 (≈ 0.539 µM) | 0.1 (≈ 0.216 µM) | 0.1 (≈ 0.216 µM) | 0.1 (≈ 0.216 µM) | 0.25 (≈ 0.539 µM) | 0.1 (≈ 0.216 µM) | 0.25 (≈ 0.539 µM) | 25 (≈ 53.9 µM) | 1 (≈ 2.16 µM) | 5 (≈ 10.8 µM) | 1 (≈ 2.16 µM) | > 100 | 0.25 (≈ 0.539 µM) | 0.1 (≈ 0.216 µM) | MIC (K. aerogenes A; K. aerogenes A, nutrient agar 5% chocolated horse blood, 18 hours 37° C., read-out: MIC): > 100 µg/mL; MIC ([6]; NCTC10662, Ps. aeruginosa NCTC 10662, nutrient agar 5% chocolated horse blood, 18 hours 37° C., read-out: MIC): > 100 µg/mL; MIC ([8]; Corynebacterium xerosis 9755, nutrient agar 5% chocolated horse blood, 18 hours 37° C., read-out: MIC): > 100 µg/mL; MIC (Sarcina lutea 8340; Micrococcus luteus, Sarcina lutea 8340, nutrient agar 5% chocolated horse blood, 18 hours 37° C., read-out: MIC): > 100 µg/mL; MIC (P. mirabilis 889; Proteus mirabilis, P. mirabilis 889, nutrient agar 5% chocolated horse blood, 18 hours 37° C., read-out: MIC): > 100 µg/mL; MIC (Staph. aureus Russell; Staph. aureus Russell, nutrient agar 5% chocolated horse blood, 18 hours 37° C., read-out: MIC): 2.5 µg/mL (≈ 5.39 µM); MIC (E. Coli NCTC 10418; NCTC10418, E. coli NCTC 10418, nutrient agar 5% chocolated horse blood, 18 hours 37° C., read-out: MIC): > 100 µg/mL; MIC (Staph. aureus Oxford; Staph. aureus Oxford, nutrient agar 5% chocolated horse blood, 18 hours 37° C., read-out: MIC): 2.5 µg/mL (≈ 5.39 µM); MIC (Bacillus subtilis 6633; Bacillus subtilis 6633, nutrient agar 5% chocolated horse blood, 18 hours 37° C., read-out: MIC): 1 µg/mL (≈ 2.16 µM); MIC ([9]; Strep. suis (group D) SPS11, DST Agar, 10^4 organisms, 18 hours 37° C., read-out: MIC): 80 µg/mL (≈ 173 µM) |
| C/C(=C\C(=O)OCc1ccc([N+](=O)[O-])cc1Cl)CC1OCC(CC2OC2C(C)C(C)O)C(O)C1O (centres unmarked) [Example 11, 2-chloro-4-nitrobenzyl monate A] | 1 (≈ 1.95 µM) | 2.5 (≈ 4.86 µM) | 0.5 (≈ 0.973 µM) | 2.5 (≈ 4.86 µM) | 2.5 (≈ 4.86 µM) | 0.025 (≈ 0.0486 µM) | 0.5 (≈ 0.973 µM) | 1 (≈ 1.95 µM) | 1 (≈ 1.95 µM) | 1 (≈ 1.95 µM) | 1 (≈ 1.95 µM) | 5 (≈ 9.73 µM) | 2.5 (≈ 4.86 µM) | 1 (≈ 1.95 µM) | 1 (≈ 1.95 µM) | 50 (≈ 97.3 µM) | 2.5 (≈ 4.86 µM) | 1 (≈ 1.95 µM) | MIC (K. aerogenes A; 18 h): > 100 µg/mL; MIC ([6]; NCTC10662, 18 h): > 100 µg/mL; MIC ([8]; Corynebacterium xerosis, 9755, 18 h): > 100 µg/mL; MIC (Sarcina lutea 8340; Micrococcus luteus, 8340, 18 h): > 100 µg/mL; MIC (P. mirabilis 889; Proteus mirabilis, 889, 18 h): > 100 µg/mL; MIC (Staph. aureus Russell; 18 h): 1 µg/mL (≈ 1.95 µM); MIC (E. Coli NCTC 10418; NCTC10418, 18 h): > 100 µg/mL; MIC (Staph. aureus Oxford; 18 h): 1 µg/mL (≈ 1.95 µM); MIC (Bacillus subtilis 6633; Bacillus subtilis, 6633, 18 h): 0.5 µg/mL (≈ 0.973 µM); MIC ([9]; 18 h): 0.625 µg/mL (≈ 1.22 µM) |
